# Experimental data published in US20190307843A1, “SINGLE DOSE METHODS FOR PREVENTING AND TREATING FUNGAL INFECTIONS” (Cidara Therapeutics, Inc., priority 2016, published 2019).
# Several values for one entry are separate records, joined by “and”; a condition that tells them apart may be missing. Equal entries are not always repeated. Where two headings read alike, the source gives them in different places. Starred links: 1 amine or outer side, 2 acyl side, 3 side chain; linkers in the order of their positions; H or OH if unused. Positions of bridges follow the written chain, without caps; N, C: chain ends. Non-standard residues stand in square brackets, D forms with d. Residues, ends and D or L forms follow the SMILES beside them. *: point of attachment. Orn(4R-OH,5R-OCH2CH2NMe3+) = C[N+](C)(C)CCO[C@@H](N[*:3])[C@H](O)C[C@H](N[*:1])C(=O)[*:2]; pTerphenylCO(4''-OnC5H11) = CCCCCOc1ccc(-c2ccc(-c3ccc(C(=O)*)cc3)cc2)cc1; hTyr(3S-OH,4S-OH) = N[C@H](C(=O)O)[C@H](O)[C@@H](O)c1ccc(O)cc1; Pro(3S-OH,4S-Me) = C[C@H]1CN[C@H](C(=O)O)[C@H]1O; Hyp = O=C(O)[C@@H]1C[C@@H](O)CN1
# Tests used:
# [1] = Pharmacokinetic profile in mice following a 10-mg/kg subcutaneous dose; type: in vivo; details: mouse, plasma, sc
# C. glabrata = test: In vitro susceptibility testing (CLSI M27-A3), C. glabrata; type: cell-based, Candida glabrata; details: Nakaseomyces glabratus, 24 h
# Procedure: (§1) Ten clinical Candida strains were used for the in vivo treatment studies, including four C. albicans, three C. glabrata, and three C. parapsilosis strains (Table 15). This group was selected to encompass phenotypic variability in susceptibility to triazoles and echinocandins and based on similar fitness in the animal model as defined by the amount of growth in control animals over 24 h. The organisms were maintained, grown, and quantified on Sabouraud's dextrose agar (SDA) plates.
# (§2) In vitro susceptibility testing. All isolates were tested in accordance with the standards in CLSI document M27-A3. The MICs were determined visually after 24 h of incubation as the lowest concentration of drug that causes a significant diminution (50%) of growth compared to controls. MICs were determined on three separate occasions in duplicate.
# C. parapsilosis = test: Neutropenic murine disseminated candidiasis model, PK/PD targets, C. parapsilosis
# C. albicans [2] = test: Neutropenic murine disseminated candidiasis model, PK/PD targets, C. albicans
# [3] = Plasma and lung epithelial lining fluid (ELF) concentrations in ICR mice, 20 mg/kg IP; type: in vivo, mouse; details: for Kp / half-life: 20 mg/kg
# Procedure: At pre-dose, 1, 3, 6, 12, 24, 48, and 72 hours post-dose, 3 mice/timepoint were anesthetized/euthanized for blood collection (plasma) and bronchoalveolar lavage fluid (BALF) collection with 2×0.5 mL flushes of saline. Urea levels for plasma/BALF normalization for the volume of lung epithelial lining fluid (ELF) calculation were quantified using a commercially-available spectrophotometry-based assay. CD101 concentrations in plasma/BALF samples were measured by LC with electrospray ionization tandem mass spectrometric (LC-MS/MS) detection.
# Urea for plasma/BALF normalization for ELF volume were quantified using spectrophotometry. CD101 concentrations in plasma/BALF samples were measured by LC-MS/MS. Total plasma concentrations were corrected for protein binding (99.2%).
# [4] = Protein binding by ultracentrifugation, human plasma; type: in vitro ADME
# Procedure: Concentrations in plasma ranging from 7 to 60 μg/mL were tested and resulting samples were analyzed by LC-MS/MS.
# C. albicans [5] = test: In vitro susceptibility testing (CLSI M27-A3), C. albicans; type: cell-based; details: Candida albicans, 24 h
# Procedure: as §1, §2
# Candida albicans (R357) = test: Neutropenic mouse model of azole-resistant candidiasis, kidney CFU; type: in vivo; details: CD101 3 mg/kg single IP dose, 72 hours
# [6] = test system: Candida albicans clinical isolates; details: SENTRY, Pfaller, et al 2017; cited from earlier work
# [7] = Single-dose plasma pharmacokinetics in mice, IP; type: in vivo, mouse; details: IP doses of 1, 4, 16, and 64 mg/kg
# Procedure: Plasma from groups of three mice per time point (1, 3, 6, 12, 24, 48, and 72-h) was collected. The plasma drug concentrations were determined by liquid chromatography-tandem mass spectrometry. A noncompartmental model was used in the pharmacokinetic analysis. Elimination half-life was calculated by nonlinear least-squares technique. The area under the concentration-time curve (AUC) was calculated by the trapezoidal rule. Pharmacokinetic exposures for doses not directly measured in the PK study were estimated by linear extrapolation for higher and lower dose levels and by interpolation for dose levels within the dose range studied given the linear PK results.
# [8] = C. albicans, Median of 4 strains
structure (smiles),measurement,setting,value
"CCCCCOc1ccc(-c2ccc(-c3ccc(C(=O)N[C@H]4C[C@@H](O)[C@@H](OCC[N+](C)(C)C)NC(=O)[C@@H]5[C@@H](O)[C@@H](C)CN5C(=O)[C@H]([C@@H](C)O)NC(=O)[C@H]([C@H](O)[C@@H](O)c5ccc(O)cc5)NC(=O)[C@@H]5C[C@@H](O)CN5C(=O)[C@H]([C@@H](C)O)NC4=O)cc3)cc2)cc1 [CD101] ({pTerphenylCO(4''-OnC5H11)}-[Orn(4R-OH,5R-OCH2CH2NMe3+)]T[Hyp][hTyr(3S-OH,4S-OH)]T[Pro(3S-OH,4S-Me)]; lactam 1-C)",half-life,[1],~1500 min
same,bioavailability,[1]; read-out: absolute bioavailability,~50%
same,MIC,C. glabrata; C. glabrata 5592,0.125 µg/mL
same,MIC,C. glabrata; C. glabrata 10956,1 µg/mL
same,MIC,C. glabrata; C. glabrata 35315,0.5 µg/mL
same,median stasis 24 h free drug AUC/MIC target,C. parapsilosis; C. parapsilosis,2.61
same,Stasis 24 h Ave free drug AUC/MIC,C. parapsilosis; C. parapsilosis 20423.072,1.39
same,Stasis free drug AUC0-168h/MIC,C. parapsilosis; C. parapsilosis 20423.072,9.74
same,Stasis total drug AUC0-168h/MIC,C. parapsilosis; C. parapsilosis 20423.072,1217.49
same,Static dose,C. parapsilosis; C. parapsilosis 20423.072,9.62 mg/kg
same,Stasis 24 h Ave free drug AUC/MIC,C. parapsilosis; C. parapsilosis 20477.048,3.82
same,Stasis free drug AUC0-168h/MIC,C. parapsilosis; C. parapsilosis 20477.048,26.72
same,Stasis total drug AUC0-168h/MIC,C. parapsilosis; C. parapsilosis 20477.048,3339.42
same,Static dose,C. parapsilosis; C. parapsilosis 20477.048,52.96 mg/kg
same,median stasis free drug AUC0-168/MIC target,C. parapsilosis; C. parapsilosis (only two strains achieved the endpoint),18.2
same,1 log kill 24 h Ave Free drug AUC/MIC,C. albicans [2]; C. albicans 98-17,3.92
same,1 log kill dose,C. albicans [2]; C. albicans 98-17,2.73 mg/kg
same,1 log kill free drug AUC0-168h/MIC,C. albicans [2]; C. albicans 98-17,27.47
same,1 log kill total drug AUC0-168h/MIC,C. albicans [2]; C. albicans 98-17,3433.40
same,Stasis 24 h Ave free drug AUC/MIC,C. albicans [2]; C. albicans 98-17,2.19
same,Stasis free drug AUC0-168h/MIC,C. albicans [2]; C. albicans 98-17,15.35
same,Stasis total drug AUC0-168h/MIC,C. albicans [2]; C. albicans 98-17,1918.43
same,Static dose,C. albicans [2]; C. albicans 98-17,1.34 mg/kg
same,1 log kill 24 h Ave Free drug AUC/MIC,C. albicans [2]; C. albicans 98-210,6.72
same,1 log kill dose,C. albicans [2]; C. albicans 98-210,2.28 mg/kg
same,1 log kill free drug AUC0-168h/MIC,C. albicans [2]; C. albicans 98-210,47.01
same,1 log kill total drug AUC0-168h/MIC,C. albicans [2]; C. albicans 98-210,5875.95
same,Stasis 24 h Ave free drug AUC/MIC,C. albicans [2]; C. albicans 98-210,3.70
same,Stasis free drug AUC0-168h/MIC,C. albicans [2]; C. albicans 98-210,25.93
same,Stasis total drug AUC0-168h/MIC,C. albicans [2]; C. albicans 98-210,3241.65
same,Static dose,C. albicans [2]; C. albicans 98-210,1.06 mg/kg
same,1 log kill 24 h Ave Free drug AUC/MIC,C. albicans [2]; C. albicans 580,3.05
same,1 log kill dose,C. albicans [2]; C. albicans 580,2.03 mg/kg
same,1 log kill free drug AUC0-168h/MIC,C. albicans [2]; C. albicans 580,21.34
same,1 log kill total drug AUC0-168h/MIC,C. albicans [2]; C. albicans 580,2667.21
same,Stasis 24 h Ave free drug AUC/MIC,C. albicans [2]; C. albicans 580,2.02
same,Stasis free drug AUC0-168h/MIC,C. albicans [2]; C. albicans 580,14.15
same,Stasis total drug AUC0-168h/MIC,C. albicans [2]; C. albicans 580,1769.30
same,Static dose,C. albicans [2]; C. albicans 580,1.20 mg/kg
same,1 log kill 24 h Ave Free drug AUC/MIC,C. albicans [2]; C. albicans K-1,6.86
same,1 log kill dose,C. albicans [2]; C. albicans K-1,5.26 mg/kg
same,1 log kill free drug AUC0-168h/MIC,C. albicans [2]; C. albicans K-1,48.05
same,1 log kill total drug AUC0-168h/MIC,C. albicans [2]; C. albicans K-1,6005.95
same,Stasis 24 h Ave free drug AUC/MIC,C. albicans [2]; C. albicans K-1,3.65
same,Stasis free drug AUC0-168h/MIC,C. albicans [2]; C. albicans K-1,25.58
same,Stasis total drug AUC0-168h/MIC,C. albicans [2]; C. albicans K-1,3197.16
same,Static dose,C. albicans [2]; C. albicans K-1,2.52 mg/kg
same,1 log kill 24 h Ave Free drug AUC/MIC,"C. albicans [2]; C. albicans, Mean of 4 strains",5.14
same,1 log kill dose,"C. albicans [2]; C. albicans, Mean of 4 strains",3.08 mg/kg
same,1 log kill free drug AUC0-168h/MIC,"C. albicans [2]; C. albicans, Mean of 4 strains",35.97
same,1 log kill total drug AUC0-168h/MIC,"C. albicans [2]; C. albicans, Mean of 4 strains",4495.63
same,Stasis 24 h Ave free drug AUC/MIC,"C. albicans [2]; C. albicans, Mean of 4 strains",2.89
same,Stasis free drug AUC0-168h/MIC,"C. albicans [2]; C. albicans, Mean of 4 strains",20.25
same,Stasis total drug AUC0-168h/MIC,"C. albicans [2]; C. albicans, Mean of 4 strains",2531.64
same,Static dose,"C. albicans [2]; C. albicans, Mean of 4 strains",1.53 mg/kg
same,1 log kill 24 h Ave Free drug AUC/MIC,C. albicans [2]; [8],5.32
same,1 log kill dose,C. albicans [2]; [8],2.51 mg/kg
same,1 log kill free drug AUC0-168h/MIC,C. albicans [2]; [8],37.24
same,1 log kill total drug AUC0-168h/MIC,C. albicans [2]; [8],4654.68
same,Stasis 24 h Ave free drug AUC/MIC,C. albicans [2]; [8],2.92
same,Stasis free drug AUC0-168h/MIC,C. albicans [2]; [8],20.5 and 20.46
same,Stasis total drug AUC0-168h/MIC,C. albicans [2]; [8],2557.79
same,Static dose,C. albicans [2]; [8],1.27 mg/kg
same,kill at high doses,"C. albicans [2]; C. albicans, a number of strains",> 2 log10
same,ELF half-life,[3]; 20 mg/kg IP,32 h
same,mean maximum ELF concentration,[3]; 20 mg/kg IP,15.1 µg/mL
same,mean maximum plasma concentration,[3]; 20 mg/kg IP,30.1 µg/mL
same,plasma half-life,[3]; 20 mg/kg IP,21.1 h
same,time of maximum plasma concentration,"[3]; 20 mg/kg IP, first collection timepoint",1 h
same,Kp,"[3]; ICR, mouse, lung epithelial lining fluid (ELF), intraperitoneal, free-drug, read-out: ELF/Plasma AUClast ratio",100
same,Kp,"[3]; ICR, mouse, lung epithelial lining fluid (ELF), intraperitoneal, total-drug, read-out: ELF/Plasma AUClast ratio",0.8
same,concentration at 72 h,"[3]; ICR, mouse, lung epithelial lining fluid (ELF), intraperitoneal, 20 mg/kg IP, at 72 h",4000 ng/mL
same,Kp,"[3]; ICR, mouse, lung epithelial lining fluid (ELF), ip, 20 mg/kg IP, read-out: AUC exposure ratios of ELF/plasma",0.8 to 0.95
same,half-life,"[3]; ICR, mouse, lung epithelial lining fluid (ELF), ip, 20 mg/kg IP, read-out: ELF half-life (converted)",1910 min
same,AUC,"[3]; ICR, mouse, lung epithelial lining fluid (ELF), 20 mg/kg IP, read-out: mean ELF AUC",802 µg·h/mL
same,AUC(0-t),"[3]; ICR, mouse, lung epithelial lining fluid (ELF), 20 mg/kg IP, read-out: mean ELF AUC0-72",606 µg·h/mL
same,half-life,"[3]; ICR, mouse, plasma, ip, 20 mg/kg IP, read-out: plasma half-life (converted)",1260 min
same,AUC,"[3]; ICR, mouse, plasma, 20 mg/kg IP, read-out: mean plasma AUC",848 µg·h/mL
same,AUC(0-t),"[3]; ICR, mouse, plasma, 20 mg/kg IP, read-out: mean plasma AUC0-72",762 µg·h/mL
same,free fraction in human vs mouse plasma,[4],~3 ×
same,"percent of bound CD101, mean",[4]; human plasma,97.4%
same,MIC,C. albicans [5]; C. albicans 98-17,0.06 µg/mL
same,MIC,C. albicans [5]; C. albicans 98-210,0.03 µg/mL
same,MIC,C. albicans [5]; C. albicans 580,0.06 µg/mL
same,MIC,"C. albicans [5]; C. albicans K-1, 50% growth diminution",0.06 µg/mL
same,reduction in C. albicans CFU compared with vehicle,Candida albicans (R357),> 3 log
same,MIC90,[6],0.06 µg/mL
same,elimination half-life,[7],29 to 41 h
same,half-life,"[7]; mouse, plasma, ip, 64 mg/kg, read-out: elimination half-life",1680 to 2460 min
same,AUC(0-inf),"[7]; mouse, plasma",93.2 to 40500 µg·h/mL
same,Cmax,"[7]; mouse, plasma, read-out: Peak (Cmax) levels",2600 to 76700 ng/mL
